The source of these data is patent US20250059179A1, “Heterocyclic Compounds and Methods of Use” (AMGEN INC., priority 2021, published 2025).

Usually IC50 stands for the concentration at which inhibition is half-maximal.

Chain of GDP-bound KRAS protein (aa 1-169), containing both G12D and C118A amino acid substitutions (P01116 1-169 isoform P01116-2 G12D/C118A): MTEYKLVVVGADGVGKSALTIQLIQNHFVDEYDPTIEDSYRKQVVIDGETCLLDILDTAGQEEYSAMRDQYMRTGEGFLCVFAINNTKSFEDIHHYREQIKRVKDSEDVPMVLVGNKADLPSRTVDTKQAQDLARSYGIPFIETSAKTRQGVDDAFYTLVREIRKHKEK
Chain of His-tagged KRAS G12D protein (P01116 1-188 isoform P01116-2 G12D): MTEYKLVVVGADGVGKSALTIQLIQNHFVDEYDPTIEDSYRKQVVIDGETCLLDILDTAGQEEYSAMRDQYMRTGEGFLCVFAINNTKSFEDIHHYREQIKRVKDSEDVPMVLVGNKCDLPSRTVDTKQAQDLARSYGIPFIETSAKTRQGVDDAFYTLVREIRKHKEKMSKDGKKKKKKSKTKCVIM

The first experiment concerns the target GDP-bound KRAS protein (aa 1-169), containing both G12D and C118A amino acid substitutions (Homo sapiens, UniProt P01116, C118A/G12D). Kind of experiment: KRAS G12D Coupled Nucleotide Exchange Assay.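 Also: IC50 obtained by fitting the AlphaScreen signal with a four-parameter logistic curve.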 The format is biochemical. The settings on record: 2 h compound pre-incubation; SOS-mediated nucleotide exchange, cRAF AlphaScreen readout. For orientation: In Alpha technology, singlet oxygen from a donor bead excites a nearby acceptor bead.
As to `Nc1nc2c(-c3c(Cl)cc4c(N5CCNC(=O)CC5)nc(OCC56CCCN5CCC6)nc4c3F)ccc(F)c2s1` [Example 13, 1-(7-(2-amino-7-fluorobenzo [d]thiazol-4-yl)-6-chloro-8-fluoro-2-((tetrahydro-1H-pyrrolizin-7a(5H)-yl)methoxy)quinazolin-4-yl)-1,4-diazepan-5-one], the “Avg 2 h Coupled Exchange IC50” value was determined as 14 nM.

Consider `Nc1nc2c(-c3ccc4c(N5C[C@H]6CC[C@@H](C5)N6)nc(OC[C@@]56CCCN5C[C@H](F)C6)nc4c3F)ccc(F)c2s1` [Example 140, 4-(4-((1R,5S)-3,8-diazabicyclo[3.2.1]octan-3-yl)-8-fluoro-2-(((2R,7aS)-2-fluorotetrahydro-1H-pyrrolizin-7a(5H)-yl)methoxy)quinazolin-7-yl)-7-fluorobenzo[d]thiazol-2-amine], for which the “Avg 2 h Coupled Exchange IC50” value stood at 3 nM. Same read-out and setting: with `Nc1nc2c(-c3c(Cl)cc4c(N5CCNCC5)nc(N5CCN6CCC5C6)nc4c3F)cccc2s1` (stereo not drawn) [Example 107, 4-[6-chloro-8-fluoro-4-piperazin-1-yl-2-[1,4-diazabicyclo[3.2.1]octan-4-yl]quinazolin-7-yl]-1,3-benzothiazol-2-amine] the figure was 1900 nM. As to `CN1CCO[C@@H]2CN(c3nc(N4CCNCC4)c4cc(Cl)c(-c5cccc6sc(N)nc56)c(F)c4n3)C[C@@H]21` (relative stereo) [Example 103, 4-(6-chloro-8-fluoro-2-(cis-4-methylhexahydropyrrolo[3,4-b][1,4]oxazin-6(2H)-yl)-4-(piperazin-1-yl)quinazolin-7-yl)benzo[d]thiazol-2-amine], the “Avg 2 h Coupled Exchange IC50” value turned out to be 1710 nM. As to `Nc1nc2c(-c3c(Cl)cc4c(N5CCNCC5)nc(N5C[C@@H]6NCC[C@@H]65)nc4c3F)cccc2s1` [Example 115, 4-[6-chloro-2-[(1S,5S)-2,6-diazabicyclo[3.2.0]heptan-6-yl]-8-fluoro-4-piperazin-1-yl-quinazolin-7-yl]-1,3-benzothiazol-2-amine], the “Avg 2 h Coupled Exchange IC50” value turned out to be 2860 nM. Take `CN1CCC2CN(c3nc(N4CCNCC4)c4cc(Cl)c(-c5cccc6sc(N)nc56)c(F)c4n3)CC21` (stereo not drawn) [Example 98, 4-(6-chloro-8-fluoro-2-(1-methylhexahydropyrrolo[3,4-b]pyrrol-5(1H)-yl)-4-(piperazin-1-yl)quinazolin-7-yl)benzo[d]thiazol-2-amine]: the “Avg 2 h Coupled Exchange IC50” value turned out to be 1310 nM. Still for that read-out and setting: with `Nc1nc2c(-c3c(Cl)cc4c(N5CCNCC5)nc(N5CC6CNC(C6)C5)nc4c3F)cccc2s1` (stereo not drawn) [Example 114, 4-[6-chloro-8-fluoro-4-piperazin-1-yl-2-[3,6-diazabicyclo[3.2.1]octan-3-yl]quinazolin-7-yl]-1,3-benzothiazol-2-amine] the figure was 2770 nM.

Consider `CN1CCCC2C1CCN2c1nc(N2CCNCC2)c2cc(Cl)c(-c3cccc4sc(N)nc34)c(F)c2n1` (stereo not drawn) [Example 99, 4-(6-chloro-8-fluoro-2-(4-methyloctahydro-1H-pyrrolo[3,2-b]pyridin-1-yl)-4-(piperazin-1-yl)quinazolin-7-yl)benzo[d]thiazol-2-amine], for which the “Avg 2 h Coupled Exchange IC50” value was found to be 1400 nM. On the same count and under the same terms, with `Nc1nc2c(-c3c(Cl)cc4c(N5CCNCC5)nc(N5CC(N6C[C@H]7COC[C@@H](C6)N7)C5)nc4c3F)cccc2s1` [Example 87, 4-(2-(3-((1R,5S)-3-oxa-7,9-diazabicyclo[3.3.1]nonan-7-yl)azetidin-1-yl)-6-chloro-8-fluoro-4-(piperazin-1-yl)quinazolin-7-yl)benzo[d]thiazol-2-amine] the figure was 701 nM; with `CN1CCO[C@H]2CN(c3nc(N4CCNCC4)c4cc(Cl)c(-c5cccc6sc(N)nc56)c(F)c4n3)C[C@@H]21` (relative stereo) [Example 101, 4-(6-chloro-8-fluoro-2-(trans-4-methylhexahydropyrrolo[3,4-b][1,4]oxazin-6(2H)-yl)-4-(piperazin-1-yl)quinazolin-7-yl)benzo[d]thiazol-2-amine], 1530 nM; with `Nc1nc2c(-c3c(Cl)cc4c(N5CCNCC5)nc(N5C[C@@H]6NCC[C@H]65)nc4c3F)cccc2s1` [Example 93, 4-[6-chloro-2-[(1S,5R)-2,6-diazabicyclo[3.2.0]heptan-6-yl]-8-fluoro-4-piperazin-1-yl-quinazolin-7-yl]-1,3-benzothiazol-2-amine], 1140 nM.

With `Nc1nc2c(-c3c(Cl)cc4c(N5CCNCC5)nc(N5CC(N6CCC(O)CC6)C5)nc4c3F)cccc2s1` [Example 83, 1-[1-[7-(2-amino-1,3-benzothiazol-4-yl)-6-chloro-8-fluoro-4-piperazin-1-yl-quinazolin-2-yl]azetidin-3-yl]piperidin-4-ol], the “Avg 2 h Coupled Exchange IC50” value stood at 496 nM. On the same count and under the same terms, in the case of `Nc1nc2c(-c3c(Cl)cc4c(N5CCNCC5)nc(N5CC6(CCOCC(=O)N6)C5)nc4c3F)cccc2s1` [Example 105, 2-[7-(2-amino-1,3-benzothiazol-4-yl)-6-chloro-8-fluoro-4-piperazin-1-yl-quinazolin-2-yl]-8-oxa-2,5-diazaspiro[3.6]decan-6-one] it was 1850 nM; in that of `Nc1nc2c(-c3c(Cl)cc4c(N5CCNCC5)nc(N5CC(N6CC(O)C6)C5)nc4c3F)cccc2s1` [Example 85, 1-[1-[7-(2-amino-1,3-benzothiazol-4-yl)-6-chloro-8-fluoro-4-piperazin-1-yl-quinazolin-2-yl]azetidin-3-yl]azetidin-3-ol], 633 nM; in that of `Nc1nc2c(-c3c(Cl)cc4c(N5CCNCC5)nc(N5CC6(C5)NCC6(F)F)nc4c3F)cccc2s1` [Example 118, 4-[6-chloro-2-(3,3-difluoro-1,6-diazaspiro[3.3]heptan-6-yl)-8-fluoro-4-piperazin-1-yl-quinazolin-7-yl]-1,3-benzothiazol-2-amine], 3370 nM. On the same count and under the same terms, in the case of `Nc1nc2c(-c3c(Cl)cc4c(N5CCNCC5)nc(N5CC6(CCN6)C5)nc4c3F)cccc2s1` [Example 102, 4-[6-chloro-2-(1,6-diazaspiro[3.3]heptan-6-yl)-8-fluoro-4-piperazin-1-yl-quinazolin-7-yl]-1,3-benzothiazol-2-amine] it was 1550 nM.

As to `COC1CCN(C2CN(c3nc(N4CCNCC4)c4cc(Cl)c(-c5cccc6sc(N)nc56)c(F)c4n3)C2)CC1` [Example 88, 4-[6-chloro-8-fluoro-2-[3-(4-methoxy-1-piperidyl)azetidin-1-yl]-4-piperazin-1-yl-quinazolin-7-yl]-1,3-benzothiazol-2-amine], the “Avg 2 h Coupled Exchange IC50” value was found to be 706 nM. Consider `Nc1nc2c(-c3c(Cl)cc4c(N5CCNCC5)nc(N5CC6(CCCN6)C5)nc4c3F)cccc2s1` [Example 84, 4-[6-chloro-2-(2,5-diazaspiro[3.4]octan-2-yl)-8-fluoro-4-piperazin-1-yl-quinazolin-7-yl]-1,3-benzothiazol-2-amine], for which the “Avg 2 h Coupled Exchange IC50” value stood at 567 nM. Same read-out and setting: in the case of `CN(C)[C@@H]1CCN(c2nc(N3CCNCC3)c3cc(Cl)c(-c4cccc5sc(N)nc45)c(F)c3n2)C1` [Example 95, 4-[6-chloro-2-[(3R)-3-(dimethylamino)pyrrolidin-1-yl]-8-fluoro-4-piperazin-1-yl-quinazolin-7-yl]-1,3-benzothiazol-2-amine] it was 1180 nM.

A further experiment has as its target His-tagged KRAS G12D protein (Homo sapiens, UniProt P01116, G12D). Kind of experiment: KRAS G12D TR-FRET Assay.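 Also: europium anti-His antibody paired with streptavidin-d2 as FRET partners, initial 30 min incubation, then peptide 1 h and detection reagents 1 h, all at room temperature.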 The format is binding. To be noted: biotinylated KRPep-2d substrate, 10 μM GDP.
With `Nc1nc2c(-c3c(Cl)cc4c(N5CCNC(=O)CC5)nc(OCC56CCCN5CCC6)nc4c3F)ccc(F)c2s1` [Example 13, 1-(7-(2-amino-7-fluorobenzo [d]thiazol-4-yl)-6-chloro-8-fluoro-2-((tetrahydro-1H-pyrrolizin-7a(5H)-yl)methoxy)quinazolin-4-yl)-1,4-diazepan-5-one], the IC50 amounted to 22 nM.

Compound `Nc1nc2c(-c3ccc4c(N5C[C@H]6CC[C@@H](C5)N6)nc(OC[C@@]56CCCN5C[C@H](F)C6)nc4c3F)ccc(F)c2s1` [Example 140, 4-(4-((1R,5S)-3,8-diazabicyclo[3.2.1]octan-3-yl)-8-fluoro-2-(((2R,7aS)-2-fluorotetrahydro-1H-pyrrolizin-7a(5H)-yl)methoxy)quinazolin-7-yl)-7-fluorobenzo[d]thiazol-2-amine] registered an IC50 of 12 nM.
